The text below walks through data of ChEMBL document CHEMBL5537158, “Polymyxins with Potent Antibacterial Activity against Colistin-Resistant Pathogens: Fine-Tuning Hydrophobicity with Unnatural Amino Acids” (J Med Chem, 2024).

Assay [1] concerns Cell membrane. Nature of the assay: Induction of membrane destabilization in Escherichia coli MG1655 assessed as SYTOX uptake at 2 times MIC measured every 5 mins for 120 mins by microplate reader assay. It is filed as cell membranes.
The test system of assay [2] is Escherichia coli. Nature of the assay: Antibacterial activity against […] Escherichia coli clinical isolate 3 assessed as bacterial growth inhibition incubated for 20 hrs by broth microdilution method. Type of assay: functional. In general terms: In broth dilution the organism is exposed to a series of concentrations in liquid medium.
Assay [3] relates to Acinetobacter baumannii. Description: Antimicrobial activity against colistin resistant Acinetobacter baumannii clinical isolate 1 assessed as bacterial growth inhibition incubated for 20 hrs by broth microdilution method. Type of assay: functional.
The test system of assay [4] is Klebsiella pneumoniae. Nature of the assay: Antimicrobial activity against colistin resistant Klebsiella pneumoniae clinical isolate 4 assessed as bacterial growth inhibition incubated for 20 hrs by broth microdilution method. It is filed as functional.
The test system of assay [5] is Escherichia coli. Description: Antibacterial activity against […] Escherichia coli ATCC 25922 assessed as bacterial growth inhibition incubated for 20 hrs by broth microdilution method. It is filed as functional.
For assay [6], the system named is Klebsiella pneumoniae. Nature of the assay: Antimicrobial activity against colistin resistant Klebsiella pneumoniae clinical isolate 2 assessed as bacterial growth inhibition incubated for 20 hrs by broth microdilution method. It is filed as functional.
The subject of assay [7] is Acinetobacter baumannii. Description: Antimicrobial activity against colistin resistant Acinetobacter baumannii clinical isolate 3 assessed as bacterial growth inhibition incubated for 20 hrs by broth microdilution method. Type of assay: functional.
Assay [8] deals with Acinetobacter baumannii. Description: Antimicrobial activity against Acinetobacter baumannii ATCC 19606 assessed as bacterial growth inhibition incubated for 20 hrs by broth microdilution method. It is filed as functional.
Assay [9] deals with Escherichia coli. Nature of the assay: Antibacterial activity against Escherichia coli ATCC 25922 assessed as bacterial growth inhibition incubated for 20 hrs by broth microdilution method. It is filed as functional.
The test system of assay [10] is Klebsiella pneumoniae. Nature of the assay: Antimicrobial activity against colistin resistant Klebsiella pneumoniae clinical isolate 3 assessed as bacterial growth inhibition incubated for 20 hrs by broth microdilution method. Type of assay: functional.
In assay [11] the test system is Pseudomonas aeruginosa. Description: Antimicrobial activity against colistin resistant Pseudomonas aeruginosa 7197/19 assessed as bacterial growth inhibition incubated for 20 hrs by broth microdilution method. Type of assay: functional.
Assay [12] has as its system Klebsiella pneumoniae. Description: Antimicrobial activity against colistin resistant Klebsiella pneumoniae ATCC 13883 assessed as bacterial growth inhibition incubated for 20 hrs by broth microdilution method. Type of assay: functional.
Assay [13] concerns Pseudomonas aeruginosa. Description: Antimicrobial activity against Pseudomonas aeruginosa PAO1 assessed as bacterial growth inhibition incubated for 20 hrs by broth microdilution method. It is filed as functional.
The subject of assay [14] is Escherichia coli. Description: Antibacterial activity against […] Escherichia coli clinical isolate 2 assessed as bacterial growth inhibition incubated for 20 hrs by broth microdilution method. It is filed as functional.
Assay [15] deals with Escherichia coli. Description: Antibacterial activity against […] Escherichia coli clinical isolate 1 assessed as bacterial growth inhibition incubated for 20 hrs by broth microdilution method. Type of assay: functional.
The test system of assay [16] is Klebsiella pneumoniae. Nature of the assay: Antimicrobial activity against Klebsiella pneumoniae ATCC 13883 assessed as bacterial growth inhibition incubated for 20 hrs by broth microdilution method. Type of assay: functional.
In assay [17] the test system is Klebsiella pneumoniae. Nature of the assay: Antimicrobial activity against colistin resistant Klebsiella pneumoniae clinical isolate 1 assessed as bacterial growth inhibition incubated for 20 hrs by broth microdilution method. Type of assay: functional.
Assay [18] has as its system Acinetobacter baumannii. Nature of the assay: Antimicrobial activity against colistin resistant Acinetobacter baumannii clinical isolate 4 assessed as bacterial growth inhibition incubated for 20 hrs by broth microdilution method. It is filed as functional.
The test system of assay [19] is Escherichia coli. Nature of the assay: Antimicrobial activity against […] Escherichia coli harboring mcr-1 assessed as bacterial growth inhibition incubated for 20 hrs by broth microdilution method. It is filed as functional.
Assay [20] deals with Pseudomonas aeruginosa. Nature of the assay: Potency index, ratio of polymyxin B MIC to test compound MIC for antibacterial activity against colistin resistant Pseudomonas aeruginosa clinical isolate 1. It is filed as functional.
The test system of assay [21] is Pseudomonas aeruginosa. Nature of the assay: Antimicrobial activity against colistin resistant Pseudomonas aeruginosa clinical isolate 1 assessed as bacterial growth inhibition incubated for 20 hrs by broth microdilution method. Type of assay: functional.
In assay [22] the test system is Pseudomonas aeruginosa. Description: Antimicrobial activity against Pseudomonas aeruginosa ATCC 27853 assessed as bacterial growth inhibition incubated for 20 hrs by broth microdilution method. It is filed as functional.

Values after ≈ are worked out from the molar mass of the structure shown. Active and inactive are the calls of the source. Positions of bridges follow the written chain, without caps; N, C: chain ends. Non-standard residues stand in square brackets, D forms with d. Residues, ends and D or L forms follow the SMILES beside them. *: point of attachment. Gly(octyl) = CCCCCCCC[C@H](N)C(=O)O; hLeu = CC(C)CC[C@H](N)C(=O)O; Octanoyl = CCCCCCCC(=O)*; Dab = NCC[C@H](N)C(=O)O Some results are limits rather than exact numbers.

With `CCCCCCCC(=O)N[C@@H](CCN)C(=O)N[C@H](C(=O)N[C@@H](CCN)C(=O)N[C@H]1CCNC(=O)[C@H]([C@@H](C)O)NC(=O)[C@H](CCN)NC(=O)[C@H](CCN)NC(=O)C(CCCc2ccccc2)NC(=O)[C@@H](Cc2ccccc2)NC(=O)[C@@H](CCN)NC1=O)[C@H](C)O` (some centres not stated), in assay [1], the outcome was Active.
Regarding `CCCCCCCC(=O)N[C@@H](CCN)C(=O)N[C@H](C(=O)N[C@@H](CCN)C(=O)N[C@H]1CCNC(=O)[C@H]([C@@H](C)O)NC(=O)[C@H](CCN)NC(=O)[C@H](CCN)NC(=O)[C@H](CC(C)C)NC(=O)[C@@H](Cc2ccc(Br)cc2)NC(=O)[C@@H](CCN)NC1=O)[C@H](C)O`, in [1], the outcome was Active.
Consider `CCCCCCCC[C@@H]1NC(=O)[C@@H](Cc2ccccc2)NC(=O)[C@H](CCN)NC(=O)[C@@H](NC(=O)[C@H](CCN)NC(=O)[C@@H](NC(=O)[C@H](CCN)NC(=O)CCCCCCC)[C@@H](C)O)CCNC(=O)[C@H]([C@@H](C)O)NC(=O)[C@H](CCN)NC(=O)[C@H](CCN)NC1=O` (Octanoyl-[Dab]T[Dab][Dab][Dab][dF][Gly(octyl)][Dab][Dab]T; lactam 4-C), for which the MIC turned out to be 4 µg/mL (≈ 3.21 µM) in assay [2]; 4 µg/mL (≈ 3.21 µM) in assay [3]; 16 µg/mL (≈ 12.8 µM) in assay [4]; 0.5 µg/mL (≈ 0.401 µM) in [5]; 16 µg/mL (≈ 12.8 µM) in [6]; 0.25 µg/mL (≈ 0.201 µM) in assay [7]. For the same molecule, the MIC in assay [8] came out at 0.25 µg/mL (≈ 0.201 µM); in [9], 0.5 µg/mL (≈ 0.401 µM); in assay [10], 16 µg/mL (≈ 12.8 µM); in [11], 0.25 µg/mL (≈ 0.201 µM); in assay [12], 16 µg/mL (≈ 12.8 µM); in [13], 0.5 µg/mL (≈ 0.401 µM). Besides, the MIC was 4 µg/mL (≈ 3.21 µM) in assay [14], 4 µg/mL (≈ 3.21 µM) in [15] and 0.25 µg/mL (≈ 0.201 µM) in assay [16].
In the case of `CCCCCCCC(=O)N[C@@H](CCN)C(=O)N[C@H](C(=O)N[C@@H](CCN)C(=O)N[C@H]1CCNC(=O)[C@H]([C@@H](C)O)NC(=O)[C@H](CCN)NC(=O)[C@H](CCN)NC(=O)[C@H](CC(C)C)NC(=O)[C@@H](Cc2ccc(Br)cc2)NC(=O)[C@H](CCN)NC1=O)[C@@H](C)O`, the minimal inhibitory concentration (MIC) in assay [2] came to 2 µg/mL (≈ 1.58 µM); in assay [3], 8 µg/mL (≈ 6.31 µM); in assay [4], 16 µg/mL (≈ 12.6 µM); in assay [5] it was 0.125 µg/mL (≈ 0.0986 µM); in assay [17] it was 16 µg/mL (≈ 12.6 µM); in assay [18], 2 µg/mL (≈ 1.58 µM). The MIC in assay [7] is 2 µg/mL (≈ 1.58 µM); in assay [19] it was 1 µg/mL (≈ 0.788 µM); in [9], less than 0.125 µg/mL; in assay [11] it was 0.125 µg/mL (≈ 0.0986 µM); in assay [12], 16 µg/mL (≈ 12.6 µM); in [21], 2 µg/mL (≈ 1.58 µM). The minimal inhibitory concentration (MIC) in assay [13] came to 0.125 µg/mL (≈ 0.0986 µM); in [14], 2 µg/mL (≈ 1.58 µM); in assay [15] it was 2 µg/mL (≈ 1.58 µM); in assay [16], 0.125 µg/mL (≈ 0.0986 µM). Moreover, the Ratio in assay [20] amounted to 2.
For the molecule `CCCCCCCC(=O)N[C@@H](CCN)C(=O)N[C@H](C(=O)N[C@@H](CCN)C(=O)N[C@H]1CCNC(=O)[C@H]([C@@H](C)O)NC(=O)[C@H](CCN)NC(=O)[C@H](CCN)NC(=O)[C@H](CCC(C)C)NC(=O)[C@@H](Cc2ccccc2)NC(=O)[C@H](CCN)NC1=O)[C@@H](C)O` (Octanoyl-[Dab]T[Dab][Dab][Dab][dF][hLeu][Dab][Dab]T; lactam 4-C), the MIC in assay [3] was 4 µg/mL (≈ 3.32 µM); in [5], 0.125 µg/mL (≈ 0.104 µM); in assay [6], 8 µg/mL (≈ 6.65 µM); in [17], 16 µg/mL (≈ 13.3 µM); in [18], 2 µg/mL (≈ 1.66 µM); in assay [7] it was 0.5 µg/mL (≈ 0.415 µM). Moreover, the MIC is 0.25 µg/mL (≈ 0.208 µM) in assay [22]; 1 µg/mL (≈ 0.831 µM) in [19]; less than 0.125 µg/mL in assay [9]; 0.5 µg/mL (≈ 0.415 µM) in [11]; less than 0.125 µg/mL in [13]; 0.5 µg/mL (≈ 0.415 µM) in assay [14]. Further, the MIC in assay [16] stood at 0.25 µg/mL (≈ 0.208 µM).

For orientation: MIC means the smallest concentration in the dilution series that meets the test's criterion for growth inhibition.
